Measured values from patent publication US9663478B2, “Benzotriazine oxides as drugs targeting Mycobacterium tuberculosis” (priority 2011, dated 2017).
Converted amounts (≈) assume the structure as drawn. Read-outs that look alike come from different tables or passages of the source.

How the values were obtained:
Mtb H37Rv [1] = assay: TB MIC - ITR (UIC), Institute for Tuberculosis Research; assay type: cell-based, Mycobacterium tuberculosis; conditions: Tables P1, P2
in vitro = conditions: African green monkey, VERO Tox (CC50)
NRP Mtb H37Rv cells = assay: Low-oxygen recovery assay (LORA) MIC; assay type: cell-based, Mycobacterium tuberculosis; conditions: Tables P1, P2; non-replicating M. tuberculosis
Mtb H37Rv [2] = assay: TB MIC - SRI, resazurin-based microplate assay; assay type: cell-based, Mycobacterium tuberculosis; conditions: Mycobacterium tuberculosis, H37RV
Vero cells = conditions: African green monkey, 72 h
[3] = Tables P1-P3, read-out: TB MIC - SRI

SMILES	TB MIC - UIC (Mtb H37Rv [1])	CC50 at 72 h (in vitro)	LORA MIC (NRP Mtb H37Rv cells)	MIC (Mtb H37Rv [2]; [3])	VERO Tox-SRI (Vero cells)	MIC (Mtb H37Rv [2]; read-out: Activity against H37Rv, Table P4)	MIC (Mtb H37Rv [2]; read-out: TB MIC - SRI, Tables P1-P3)
[O-][n+]1nc(NC2CCCCCC2)[n+]([O-])c2ccccc21 [SRI-012256]	1.64 µg/mL	7.9 µg/mL (≈ 28.8 µM)	0.5 µg/mL	–	–	–	–
CCCC(C)Nc1n[n+]([O-])c2ccccc2[n+]1[O-] (centres unmarked) [SRI-012258]	1.95 µg/mL	26.3 µg/mL (≈ 106 µM)	0.99 µg/mL	–	–	–	–
[O-][n+]1nc(NC2CCCC2)[n+]([O-])c2ccccc21 [SRI-012265]	3.58 µg/mL	10.4 µg/mL (≈ 42.2 µM)	0.68 µg/mL	–	–	–	–
[O-][n+]1nc(NC2CCCCC2)[n+]([O-])c2ccccc21 [SRI-012266]	3.77 µg/mL	8.9 µg/mL (≈ 34.2 µM)	0.75 µg/mL	–	–	–	–
CCNc1n[n+]([O-])c2cc(F)ccc2[n+]1[O-] [SRI-012284]	0.35 µg/mL	–	0.75 µg/mL	0.625 µg/mL (≈ 2.79 µM)	4.6	–	–
CCNc1n[n+]([O-])c2cc3c(cc2[n+]1[O-])CCC3 [SRI-012286]	0.95 µg/mL	–	0.83 µg/mL	–	36.0	1.25 µg/mL (≈ 5.08 µM)	1.25 µg/mL (≈ 5.08 µM)
[O-][n+]1nc(NC2CC2)[n+]([O-])c2ccc(Cl)cc21 [SRI-012301]	0.21 µg/mL	–	0.22 µg/mL	0.625 µg/mL (≈ 2.47 µM)	1.36	–	–
[O-][n+]1nc(NC2CCC2)[n+]([O-])c2ccc(Cl)cc21 [SRI-012302]	< 0.125 µg/mL	–	< 0.125 µg/mL	0.156 µg/mL (≈ 0.585 µM)	1.6	–	–
[O-][n+]1nc(NC2CCCCC2)[n+]([O-])c2ccc(Cl)cc21 [SRI-012303]	0.94 µg/mL	–	0.63 µg/mL	0.625 µg/mL (≈ 2.12 µM)	2.62	–	–
CCC(COC)Nc1n[n+]([O-])c2cc(Cl)ccc2[n+]1[O-] (centres unmarked) [SRI-012304]	1.46 µg/mL	–	0.78 µg/mL	1.25 µg/mL (≈ 4.18 µM)	2.6	–	–
CCNc1n[n+]([O-])c2cc(Cl)ccc2[n+]1[O-] [SRI-012306]	< 0.125 µg/mL	–	0.41 µg/mL	1.25 µg/mL (≈ 5.19 µM)	2.65	–	–
